For one data set, the system named is U937 cells. Put plainly: Cell growth inhibitory effect, U937 cells (Cell counting Kit-8, 72 hours). Conditions: Homo sapiens, U-937, BCR-ABL negative U937 cells, WST-8 absorbance. The format is cell-based. Here is the method:
The plate was incubated in a CO2 incubator overnight. […] The plate was incubated in a CO2 incubator. After 72 hours, 20 μl
For orientation: Tetrazolium assays rely on reduction of a dye to a coloured formazan, in cell work by metabolically active cells.

A further data set concerns K562 cells. Description: Cell growth inhibitory effect, K562 cells (Cell counting Kit-8, 72 hours).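 On all read-outs here: Read-out is formazan absorbance at 450 nm from WST-8 reduction after a 3 h color reaction, with K562 and U937 cells grown in 96-well plates.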 Conditions: for IC50: Homo sapiens, K562, 72 h, read-out: K562 cells (IC50 value: μM); for Ratio (U937 cells/K562 cells): IC50 U937 cells / IC50 K562 cells.
[1] abbreviates: read-out: U937 cells (IC50 value: μM).
Setting [2] is: continuation of Table 3, read-out: U937 cells (IC50 value: nμM).

Where two headings read alike, the source gives them in different places. A value given as a limit tells only on which side of the number the result lay.

The IC50 is the point on the concentration scale where inhibition reaches its midpoint. The term melting point denotes the temperature, or range, at which the solid turns liquid.

Experimental for K562 cells: of Cell counting Kit-8 (5 mmol/l WST-8, 0.2 mmol/1 1-Methoxy PMS, 150 mmol/l NaCl) (manufactured by Dojindo) was added to each well. After reaction for color development in a CO2 incubator for 3 hours, an absorbance of formazan, generated by reduction of WST-8 was determined at 450 nm using Multi-level counter ARVOsx (manufactured by Wallac).
K562 cells and U937 cells (purchased from American Type Culture Collection) were cultured in a RPMI-1640 medium (manufactured by Sigma) containing 10% (v/v) fetal calf serum (FCS) (manufactures by Sigma) (RPMI-1640/FCS). K562 cells and U937 cells were seeded at a density of 5000 cells/100 μl/well and 4000 cells/100 μl/well in each of 96-hole-plate (manufactured by costar), respectively. The plate was incubated in a CO2 incubator overnight. […] The resulting solution was diluted 500 times in a RPMI-1640/FCS medium and then 100 μl of the diluent was added in a well. The plate was incubated in a CO2 incubator. After 72 hours, 20 μl

As for `CCN1CCN(Cc2ccc(C(=O)Nc3ccc(C)c(Nc4nccc(-c5cncnc5)n4)c3)cc2C(F)(F)F)CC1.Cl` [Example 16, 4-(4-ethylpiperazin-1-ylmethyl)-3-trifluoromethyl-N-{4-methyl-3-[4-(5-pyrimidinyl)pyrimidin-2-ylamino]phenyl}benzamide hydrochloride], the melting point is 256 to 259 °C (dec.). The IC50 in the data set on U937 cells (setting [1]) is 4.1 µM. In addition, in the data set on K562 cells, the IC50 came to 0.0011 µM and the “Ratio (U937 cells/K562 cells)” value was 3727.
For `Cc1ccc(NC(=O)c2ccc(CN3CCN(C)CC3)c(C(F)F)c2)cc1Nc1nccc(-c2cncnc2)n1.Cl` [Example 2, 3-difluoromethyl-4-(4-methylpiperazin-1-ylmethyl)-N-{4-methyl-3-[4-(5-pyrimidinyl)pyrimidin-2-ylamino]phenyl}benzamide hydrochloride], the melting point is 264 °C (dec.). For the same molecule, in the data set with U937 cells (setting [1]), the IC50 is 15 µM. In the data set on K562 cells, the IC50 was 0.0028 µM and the “Ratio (U937 cells/K562 cells)” value was 5357.
Taken in the same sequence, the figures for `Cc1ccc(NC(=O)c2ccc(CC3CCN(C)CC3)c(C(F)(F)F)c2)cc1Nc1nccc(-c2cncnc2)n1.Cl` [Example 8, 4-(1-methylpiperidin-4-ylmethyl)-3-trifluoromethyl-N-{4-methyl-3-[4-(5-pyrimidinyl)pyrimidin-2-ylamino]phenyl}benzamide hydrochloride] were 227 to 231 °C (dec.), 4.6 µM, 0.00098 µM and 4694.
`Cc1ccc(NC(=O)c2ccc(CN3CC[C@H](N4CCCC4)C3)c(C(F)(F)F)c2)cc1Nc1nccc(-c2cncnc2)n1.Cl` [Example 58, (−)-4-[(S)-3-(1-pyrrolidinyl)pyrrolidin-1-ylmethyl]-3-trifluoromethyl-N-{4-methyl-3-[4-(5-pyrimidinyl)pyrimidin-2-ylamino]phenyl}benzamide hydrochloride] had a melting point of 168 to 171 °C. Also, in the data set on U937 cells (setting [2]), the concentration for half-maximal inhibition (IC50) came out at 9.4 µM. Also, in the data set on K562 cells, the IC50 amounted to 0.0047 µM and the “Ratio (U937 cells/K562 cells)” value came out at 2000.
The matching figures for `CCN1CCN(Cc2ccc(C(=O)Nc3ccc(C)c(Nc4cc(-c5cccnc5)ccn4)c3)cc2C(F)(F)F)CC1.Cl` [Example 27, 4-(4-ethylpiperazin-1-ylmethyl)-3-trifluoromethyl-N-{4-methyl-3-[4-(3-pyridyl)pyridin-2-ylamino]phenyl}benzamide hydrochloride]: 230 to 235 °C (dec.), 2.6 µM, 0.0025 µM and 1040.
In the case of `Cc1ccc(NC(=O)c2cc(Cl)c(CN3CC[C@H](N(C)C)C3)c(Cl)c2)cc1Nc1nccc(-c2cncnc2)n1.Cl` [Example 12, (−)-3,5-dichloro-4-[(S)-3-(dimethylamino)pyrrolidin-1-ylmethyl]-N-{4-methyl-3-[4-(5-pyrimidinyl)pyrimidin-2-ylamino]phenyl}benzamide hydrochloride], the melting point is 161 to 170 °C (dec.). The half-inhibitory concentration (IC50) in the data set on U937 cells (setting [1]) is 4.7 µM. Moreover, in the data set on K562 cells, the IC50 was 0.0056 µM and the “Ratio (U937 cells/K562 cells)” value stood at 839.
As for `Cc1ccc(NC(=O)c2ccc(CN3CC(CN(C)C)C3)c(C(F)(F)F)c2)cc1Nc1nccc(-c2cncnc2)n1.Cl` [Example 54, 4-[3-(dimethylaminomethyl)azetidin-1-ylmethyl]-3-trifluoromethyl-N-{4-methyl-3-[4-(5-pyrimidinyl)pyrimidin-2-ylamino]phenyl}benzamide hydrochloride], the melting point is 142 to 152 °C (dec.). In addition, the IC50 in the data set on U937 cells (setting [2]) stood at 16 µM. In the data set with K562 cells, the IC50 was 0.0096 µM and the “Ratio (U937 cells/K562 cells)” value is 1667.
Taken in the same sequence, the figures for `Cc1ccc(NC(=O)c2ccc(CN3CCN(CCO)CC3)c(C(F)(F)F)c2)cc1Nc1nccc(-c2cncnc2)n1.Cl` [Example 37, 4-[4-(2-hydroxyethyl)piperazin-1-ylmethyl]-3-trifluoromethyl-N-{4-methyl-3-[4-(5-pyrimidinyl)pyrimidin-2-ylamino]phenyl}benzamide hydrochloride] were 248 to 255 °C (dec.), 10 µM, 0.0014 µM and 7143.
The matching figures for `Cc1ccc(NC(=O)c2ccc(CN3C[C@@H](N(C)C)C[C@H]3C)c(C(F)(F)F)c2)cc1Nc1nccc(-c2cncnc2)n1.Cl` [Example 60, (−)-4-[(2R,4S)-4-(dimethylamino)-2-methylpyrrolidin-1-ylmethyl]-3-trifluoromethyl-N-{4-methyl-3-[4-(5-pyrimidinyl)pyrimidin-2-ylamino]phenyl}benzamide hydrochloride]: 188 to 193 °C, 4 µM, 0.005 µM and 800.
The matching figures for `Cc1ccc(NC(=O)c2ccc(CN3CCN[C@H](C)C3)c(C(F)(F)F)c2)cc1Nc1nccc(-c2cncnc2)n1.Cl` [Example 56, (+)-4-((R)-3-methylpiperazin-1-ylmethyl)-3-trifluoromethyl-N-{4-methyl-3-[4-(5-pyrimidinyl)pyrimidin-2-ylamino]phenyl}benzamide hydrochloride]: 254 to 258 °C, 4.4 µM, 0.0046 µM and 957.
For `Cc1ccc(NC(=O)c2ccc(CN3CC(N(C)C)C3)c(C(F)(F)F)c2)cc1Nc1nccc(-c2cncnc2)n1.Cl` [Example 77, 4-[3-(dimethylamino)azetidin-1-ylmethyl]-3-trifluoromethyl-N-{4-methyl-3-[4-(5-pyrimidinyl)pyrimidin-2-ylamino]phenyl}benzamide hydrochloride], the melting point is 159 to 167 °C (dec.). Further, the IC50 with U937 cells (setting [2]) was over 100 µM. Further, in the data set with K562 cells, the concentration for half-maximal inhibition (IC50) was determined as 0.018 µM and the “Ratio (U937 cells/K562 cells)” value is reported as over 13699.
For the molecule `CCc1cc(C(=O)Nc2ccc(C)c(Nc3nccc(-c4cncnc4)n3)c2)ccc1CN1CCN(C)CC1.Cl` [Example 4, 3-ethyl-4-(4-methylpiperazin-1-ylmethyl)-N-{4-methyl-3-[4-(5-pyrimidinyl)pyrimidin-2-ylamino]phenyl}benzamide hydrochloride], the melting point is 253 to 255 °C (dec.). In the data set with U937 cells (setting [1]), the IC50 worked out at 28 µM. In the data set on K562 cells, the concentration for half-maximal inhibition (IC50) amounted to 0.002 µM and the “Ratio (U937 cells/K562 cells)” value turned out to be 14000.
For the molecule `Cc1ccc(NC(=O)c2ccc(CN3C[C@@H](C)[C@H](N(C)C)C3)c(C(F)(F)F)c2)cc1Nc1nccc(-c2cncnc2)n1.Cl` [Example 67, (−)-4-[(3S,4R)-3-(dimethylamino)-4-methylpyrrolidin-1-ylmethyl]-3-trifluoromethyl-N-{4-methyl-3-[4-(5-pyrimidinyl)pyrimidin-2-ylamino]phenyl}benzamide hydrochloride], the melting point is 164 to 174 °C (dec.). In addition, the IC50 in the data set with U937 cells (setting [2]) is 6.5 µM. In addition, in the data set with K562 cells, the IC50 is 0.0077 µM and the “Ratio (U937 cells/K562 cells)” value was 844.
`Cc1ccc(NC(=O)c2ccc(CN3CC[C@H](CN(C)C)C3)c(C(F)(F)F)c2)cc1Nc1nccc(-c2cncnc2)n1.Cl` [Example 79, 4-[(R)-3-(dimethylaminomethyl)pyrrolidin-1-ylmethyl]-3-trifluoromethyl-N-{4-methyl-3-[4-(5-pyrimidinyl)pyrimidin-2-ylamino]phenyl}benzamide hydrochloride]: the melting point was 114 to 122 °C (dec.). For the same molecule, in the data set with U937 cells (setting [2]), the IC50 is 20 µM. Further, in the data set with K562 cells, the 50% inhibitory concentration (IC50) was determined as 0.0059 µM and the “Ratio (U937 cells/K562 cells)” value was found to be 4348.
Regarding `Cc1ccc(NC(=O)c2ccc(CN3CCN(C)CC3)c(C(F)(F)F)c2)cc1Nc1cc(-c2cncnc2)ncn1.Cl` [Example 33, 4-(1-methylpiperazin-4-ylmethyl)-3-trifluoromethyl-N-{4-methyl-3-[6-(5-pyrimidinyl)pyrimidin-4-ylamino]phenyl}benzamide hydrochloride], the melting point was 203 to 207 °C (dec.). In addition, the IC50 with U937 cells (setting [2]) worked out at 11 µM. Also, in the data set with K562 cells, the IC50 stood at 0.0084 µM and the “Ratio (U937 cells/K562 cells)” value is recorded as 1310.
Taken in the same sequence, the figures for `Cc1ccc(NC(=O)c2ccc(CN3CCC[C@H](N(C)C)C3)c(C(F)(F)F)c2)cc1Nc1nccc(-c2cncnc2)n1.Cl` [Example 64, (+)-4-[(S)-3-(dimethylamino)piperidinomethyl]-3-trifluoromethyl-N-{4-methyl-3-[4-(5-pyrimidinyl)pyrimidin-2-ylamino]phenyl}benzamide hydrochloride] were 195 to 198 °C, 3.7 µM, 0.0043 µM and 860.

For the origin of these results see patent US7728131B2, “Amide derivative and medicine” (Nippon Shinyaku Co., Ltd., priority 2003, dated 2010).
